# Assay results published in patent US20250170114A1, “METHODS OF TREATMENT USING T-TYPE CALCIUM CHANNEL MODULATORS” (Praxis Precision Medicines, Inc., priority 2022, published 2025).
# Columns and labels:
# participants with ET [1] = test: Phase 2 trial: Patient Global Impression of Change (PGI-C); format: in vivo, human; details: Part B RWD (RWAS), Day 70, study drug group, n = 5, vs randomization baseline
# From the text: The Patient Global Impression of Change (PGI-C) assesses the participant's improvement (or worsening). The participant is required to assess their condition relative to Baseline (Day 0) on a 7-point scale from 1 (very much improved) to 7 (very much worse). The assessment is made independent of whether the participant believes the improvement/worsening was drug-related or not. In some embodiments, the method results in a reduction in PGI-C score compared to baseline. The Columbia-Suicide Severity Rating Scale (C-SSRS) assesses suicidal ideation and behavior in participants during participation in a clinical trial of centrally-acting drugs. The C-SSRS is composed of 5 questions addressing suicidal behavior and 5 questions addressing suicidal ideation, with sub-questions assessing the severity. The tool should be administered via interview with the participant (by a trained operator/interviewer) and takes about 5 to 10 minutes to complete. In some embodiments, the method results in a reduction in suicidal ideation and/or behavior as compared to suicidal ideation and/or behavior prior to treatment. In other embodiments, the method results in no change in the C-SSRS score of a patient as compared to the C-SSRS score prior to treatment. Key safety measures included clinical laboratory evaluations, 12-lead ECG, C-SSRS, and vital signs. Key efficacy assessments included the TETRAS Performance subscale, TETRAS Upper Limb using accelerometry, CGI, and PGI-C. Blood samples were obtained for the determination of study drug plasma concentrations using a validated bioanalytical method and may also be used for method development and/or metabolite characterization. In both phases, key safety measures included clinical laboratory evaluations, 12-lead ECG, C-SSRS, and vital signs. Key efficacy assessments included the TETRAS Performance subscale, TETRAS Upper Limb using accelerometry, CGI, PGI-C, TETRAS ADL Subscale, QUEST, BDI-II, and BAI. Blood samples were obtained for the determination of study drug and metabolite plasma concentrations.
# participants with ET [2] = test: Phase 2 trial Part B: Beck Anxiety Inventory (BAI); format: in vivo, human
# Experimental: The Beck Anxiety Index (BAI) is a brief measure of anxiety with a specific attention on somatic symptoms of anxiety that was developed as a measure aimed at discriminating between anxiety and depression (Beck et al 1988). The BAI contains 21 questions about the common symptoms of anxiety that the subject could have experienced during the past week (including the day the BAI is administered). The common symptoms of anxiety include numbness and tingling, sweating not due to heat, and fear of the worst happening. It is designed for individuals who are of 17 years of age or older and takes 5 to 10 minutes to complete. Each answer is scored on a scale value of 0 (not at all) to 3 (severely). Higher total scores indicate more severe anxiety symptoms. The standardized cutoffs are the following: 0-7: minimal, 8-15: mild, 16-25: moderate, 26-63: severe.
# (§1) In both phases, key safety measures included clinical laboratory evaluations, 12-lead ECG, C-SSRS, and vital signs. Key efficacy assessments included the TETRAS Performance subscale, TETRAS Upper Limb using accelerometry, CGI, PGI-C, TETRAS ADL Subscale, QUEST, BDI-II, and BAI. Blood samples were obtained for the determination of study drug and metabolite plasma concentrations.
# [3] = Phase 2 trial: study drug plasma concentrations; format: in vivo, human
# From the text: as §1, with “Key safety measures included clinical laboratory evaluations, 12-lead ECG, C-SSRS, and vital signs. Key efficacy assessments included the TETRAS Performance subscale, TETRAS Upper Limb using accelerometry, CGI, and PGI-C. Blood samples were obtained for the determination of study drug plasma concentrations using a validated bioanalytical method and may also be used for method development and/or metabolite characterization. In” for “In”
# [4] = test system: rat spontaneous locomotor activity (sLMA); test: Rat spontaneous locomotor activity (sLMA) assay; format: in vivo; details: rats, 0-30 min; compound of Formula (I) 1 mg/kg p.o., propranolol 1 or 3 mg/kg i.p., alone or in combination
# Experimental: […] Rat sLMA was measured from 0-30 min (0 minutes is 60 minutes after administration of the compound of Formula (I) and 20 minutes after administration of propranolol).
# [5] = test system: harmaline-induced decrease in travelling distance in male SD rats; test: Open field test with harmaline in SD rats; format: in vivo, rat; details: harmaline 30 mg/kg, dose of 3 and 10 mg/kg
# Experimental: Each of six groups of male SD rats were subjected to a tremor assessment, followed by three ADL-like measures including open field test, rotarod test, and wire grip test after receiving doses of either vehicle, Formula (I), or propranolol, followed by either saline or harmaline, as outlined below in Table 22 below.
# Fifteen minutes after the tremor assessment, the rats were subjected to an open field test. FIG. 8 is a bar graph showing the traveling distance in 0-5 minutes (mm) measured in rats that were administered 30 mg/kg harmaline and also administered 10 mg/kg propranolol or 1 mg/kg, 3 mg/kg or 10 mg/kg study drug.
# [6] = test system: harmaline-induced hypolocomotion in male SD rats; test: Co-dosing with propranolol in rat harmaline-induced hypolocomotion (open field, 30 min); format: in vivo; details: harmaline 30 mg/kg, 3 mg/kg study drug alone (without propranolol), identical study
# Experimental: Two harmaline model studies using sLMA as one ADL-like end point were carried out. In each of two sLMA studies, male SD rats were grouped into five groups according to the following table. In the first study, Groups 3, 4, and 5 received 3 mg/kg of propranolol and the compound of Formula (I) (the study drug) at the doses of 1 mg/kg or 3 mg/kg. In the second study, Groups 3, 4, and 5, received 10 mg/kg of propranolol and the study drug at the doses of 1 mg/kg or 3 mg/kg.
# Rats were then subjected to an open field test for 30 minutes. Total distance travelled was measured.
# participants with ET [7] = test: Phase 2 trial Part B: Quality of Life in Essential Tremor Questionnaire (QUEST); format: in vivo, human; details: pre-dose baseline to Day 56, participants receiving study drug
# From the text: as §1
# [8] = Part B OLT (FAS), Day 7, n = 13
# [9] = Part B OLT (FAS), Day 21, n = 12
# [10] = Part B OLT (FAS), Day 42, n = 11
# [11] = Part B RWD (RWAS), Day 56, Study drug, n = 6
# [12] = Part B RWD (RWAS), Day 70, Study drug, n = 5
structure (smiles),measurement,setting,value
CC(C)(C)NC(=O)CN1CCC(CNC(=O)c2cc(F)cc(Cl)c2)CC1.Cl [Study drug],PGI-C Score 3 minimally improved,participants with ET [1],1 (20.0) n (%)
same,PGI-C Score 4 no change,participants with ET [1],3 (60.0) n (%)
same,PGI-C Score 6 much worse,participants with ET [1],1 (20.0) n (%)
same,BAI Score Mild (8-15),participants with ET [2]; [8],3 n (%)
same,BAI Score Minimal (0-7),participants with ET [2]; [8],7 n (%)
same,BAI Score Moderate (16-25),participants with ET [2]; [8],3 n (%)
same,BAI Score Severe (26-63),participants with ET [2]; [8],0 n (%)
same,BAI Score Mild (8-15),participants with ET [2]; [9],1 n (%)
same,BAI Score Minimal (0-7),participants with ET [2]; [9],9 n (%)
same,BAI Score Moderate (16-25),participants with ET [2]; [9],2 n (%)
same,BAI Score Severe (26-63),participants with ET [2]; [9],0 n (%)
same,BAI Score Mild (8-15),participants with ET [2]; [10],1 n (%)
same,BAI Score Minimal (0-7),participants with ET [2]; [10],9 n (%)
same,BAI Score Moderate (16-25),participants with ET [2]; [10],1 n (%)
same,BAI Score Severe (26-63),participants with ET [2]; [10],0 n (%)
same,BAI Score Mild (8-15),participants with ET [2]; [11],2 n (%)
same,BAI Score Minimal (0-7),participants with ET [2]; [11],4 n (%)
same,BAI Score Moderate (16-25),participants with ET [2]; [11],0 n (%)
same,BAI Score Severe (26-63),participants with ET [2]; [11],0 n (%)
same,BAI Score Mild (8-15),participants with ET [2]; [12],0 n (%)
same,BAI Score Minimal (0-7),participants with ET [2]; [12],4 n (%)
same,BAI Score Moderate (16-25),participants with ET [2]; [12],0 n (%)
same,BAI Score Severe (26-63),participants with ET [2]; [12],1 (20.0) n (%)
same,change in BAI scores,participants with ET [2]; Part B open-label titration phase,shift in BAI scores from mild to minimal anxiety
same,study drug plasma concentrations,"[3]; 1-hour post-dose, all participants",Measurable
same,study drug plasma concentrations,[3]; after 56 days of daily dosing and a 14-day washout period,undetectable
same,concentration at 42 day,"[3]; human, plasma, oral, 120 mg, Part B, Day 42, steady-state",379 ng/mL
same,concentration at 56 day,"[3]; human, plasma, oral, Part B, Day 56",344 ng/mL
same,total sLMA (total distance travelled),[4],do not significantly reduce
same,travelling distance in 0-5 minutes in open field vs vehicle and harmaline only,[5]; listed as Formula (I),significantly attenuated
same,travelling distance in 0-5 minutes in open field vs vehicle and harmaline only,[5]; listed as compound of Formula (I),significantly attenuated decrease
same,harmaline-induced hypolocomotion (traveling distance in 0-30 minutes) vs harmaline and vehicle,[6],not significantly different
same,Quality of life measured by QUEST,participants with ET [7],improved
